Data on 1 compound can be found in ChEMBL document CHEMBL4334471, “Discovery of 1,8-disubstituted-[1,2,3]triazolo[4,5-c]quinoline derivatives as a new class of Hippo signaling pathway inhibitors” (Bioorg Med Chem Lett, 2019).

Test [1] concerns the target Serine/threonine-protein kinase 33 (Homo sapiens) (UniProt Q9BYT3). Nature of the test: Inhibition of recombinant full-length human STK33 assessed as residual activity at 10 uM using myelin basic protein as substrate incubated for 40 mins in presence of [gamma33P]ATP by scintillation counting based radiometry assay relative to control.
Test [2] addresses SRSF protein kinase 2 (Homo sapiens) (UniProt P78362). Nature of the test: Inhibition of recombinant human SRPK2 (46 to end residues) assessed as residual activity at 10 uM using RSRSRSRSRSRSRSR as substrate incubated for 40 mins in presence of [gamma33P]ATP by scintillation counting based radiometry assay relative to control.
In test [3] the target is Protein kinase C beta type (Homo sapiens) (UniProt P05771). Nature of the test: Inhibition of recombinant human PKCbeta1 (2 to end residues) assessed as residual activity at 10 uM using histone H1 as substrate incubated for 40 mins in presence of [gamma33P]ATP by scintillation counting based radiometry assay relative to control.
Protein kinase C beta type (Homo sapiens), sequence (P05771 2-671 limits assumed): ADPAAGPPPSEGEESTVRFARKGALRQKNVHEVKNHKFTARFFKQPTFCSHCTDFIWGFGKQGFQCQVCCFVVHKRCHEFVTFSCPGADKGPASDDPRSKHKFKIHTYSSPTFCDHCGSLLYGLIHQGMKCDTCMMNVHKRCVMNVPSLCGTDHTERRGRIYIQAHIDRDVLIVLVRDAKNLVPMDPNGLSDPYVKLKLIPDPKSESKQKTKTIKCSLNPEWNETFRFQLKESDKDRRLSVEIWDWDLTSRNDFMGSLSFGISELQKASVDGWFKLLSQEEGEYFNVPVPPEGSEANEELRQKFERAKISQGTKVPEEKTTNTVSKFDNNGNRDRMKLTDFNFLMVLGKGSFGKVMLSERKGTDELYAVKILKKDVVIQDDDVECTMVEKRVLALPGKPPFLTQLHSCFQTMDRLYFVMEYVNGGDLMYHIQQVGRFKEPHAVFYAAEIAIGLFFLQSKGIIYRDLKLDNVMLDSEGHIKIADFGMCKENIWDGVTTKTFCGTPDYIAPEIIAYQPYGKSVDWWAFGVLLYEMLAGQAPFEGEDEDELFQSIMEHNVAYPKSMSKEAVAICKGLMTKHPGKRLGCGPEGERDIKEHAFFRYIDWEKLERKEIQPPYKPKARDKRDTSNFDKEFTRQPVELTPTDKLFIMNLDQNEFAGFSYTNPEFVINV
Test [4] addresses Ribosomal protein S6 kinase alpha-1 (Homo sapiens) (UniProt Q15418). Nature of the test: Inhibition of recombinant full length human Rsk1 assessed as residual activity at 10 uM using KKKNRTLSVA as substrate incubated for 40 mins in presence of [gamma33P]ATP by scintillation counting based radiometry assay relative to control.
Test [5] concerns Fungi. Nature of the test: Inhibition of recombinant fungi CK1 (2 to 298 residues) assessed as residual activity at 10 uM using KRRRALS(p)VASLPGL as substrate incubated for 40 mins in presence of [gamma-33ATP] by scintillation counting based radiometry assay relative to control.
Test [6] addresses 3-phosphoinositide-dependent protein kinase 1 (Homo sapiens) (UniProt O15530). Nature of the test: Inhibition of recombinant human PDK1 (52 to end residues) assessed as residual activity at 10 uM using PDKtide as substrate incubated for 40 mins in presence of [gamma33P]ATP by scintillation counting based radiometry assay relative to control.
The target in test [7] is Calcium/calmodulin-dependent protein kinase type 1D (Homo sapiens) (UniProt Q8IU85). Nature of the test: Inhibition of recombinant full length human CaMK1delta assessed as residual activity at 10 uM using […] incubated for 40 mins in presence of [gamma-33ATP] by scintillation counting based radiometry assay relative to control.
Test [8] deals with Serine/threonine-protein kinase 17A (Homo sapiens) (UniProt Q9UEE5). Nature of the test: Inhibition of recombinant human DRAK1 assessed as residual activity at 10 uM using KKLNRTLSFAEPG as substrate at 40 mins in presence of [gamma-33ATP] by scintillation counting based radiometry assay relative to control.
The target of test [9] is MAP/microtubule affinity-regulating kinase 4 (Homo sapiens) (UniProt Q96L34). Description: Inhibition of recombinant full length human MARK4 assessed as residual activity at 10 uM using KKKVSRSGLYRSPSMPENLNRPR as substrate incubated for 40 mins in presence of [gamma-33ATP by scintillation counting based radiometry assay relative to control.
Test [10] addresses Cyclin-dependent kinase-like 2 (Homo sapiens) (UniProt Q92772). Nature of the test: Inhibition of recombinant full length human CDKL2 assessed as residual activity at 10 uM in presence of [gamma-33ATP] by scintillation counting based radiometry assay relative to control.
Test [11] addresses Serine/threonine-protein kinase PAK 5 (Homo sapiens) (UniProt Q9P286). Description: Inhibition of recombinant human PAK5 (425 to end residues) assessed as residual activity at 10 uM using RRRLSFAEPG as substrate measured after 40 mins in presence of [gamma33P]ATP by scintillation counting based radiometry assay relative to control.
In test [12] the target is Ephrin type-A receptor 3 (Homo sapiens) (UniProt P29320). Nature of the test: Inhibition of recombinant human EphA3 (578 to end residues) assessed as residual activity at 10 uM using poly(Glu, Tyr) 4:1 as substrate at 40 mins in presence of [gamma-33ATP] by scintillation counting based radiometry assay relative to control.
Ephrin type-A receptor 3 (Homo sapiens), sequence (P29320 whole entry): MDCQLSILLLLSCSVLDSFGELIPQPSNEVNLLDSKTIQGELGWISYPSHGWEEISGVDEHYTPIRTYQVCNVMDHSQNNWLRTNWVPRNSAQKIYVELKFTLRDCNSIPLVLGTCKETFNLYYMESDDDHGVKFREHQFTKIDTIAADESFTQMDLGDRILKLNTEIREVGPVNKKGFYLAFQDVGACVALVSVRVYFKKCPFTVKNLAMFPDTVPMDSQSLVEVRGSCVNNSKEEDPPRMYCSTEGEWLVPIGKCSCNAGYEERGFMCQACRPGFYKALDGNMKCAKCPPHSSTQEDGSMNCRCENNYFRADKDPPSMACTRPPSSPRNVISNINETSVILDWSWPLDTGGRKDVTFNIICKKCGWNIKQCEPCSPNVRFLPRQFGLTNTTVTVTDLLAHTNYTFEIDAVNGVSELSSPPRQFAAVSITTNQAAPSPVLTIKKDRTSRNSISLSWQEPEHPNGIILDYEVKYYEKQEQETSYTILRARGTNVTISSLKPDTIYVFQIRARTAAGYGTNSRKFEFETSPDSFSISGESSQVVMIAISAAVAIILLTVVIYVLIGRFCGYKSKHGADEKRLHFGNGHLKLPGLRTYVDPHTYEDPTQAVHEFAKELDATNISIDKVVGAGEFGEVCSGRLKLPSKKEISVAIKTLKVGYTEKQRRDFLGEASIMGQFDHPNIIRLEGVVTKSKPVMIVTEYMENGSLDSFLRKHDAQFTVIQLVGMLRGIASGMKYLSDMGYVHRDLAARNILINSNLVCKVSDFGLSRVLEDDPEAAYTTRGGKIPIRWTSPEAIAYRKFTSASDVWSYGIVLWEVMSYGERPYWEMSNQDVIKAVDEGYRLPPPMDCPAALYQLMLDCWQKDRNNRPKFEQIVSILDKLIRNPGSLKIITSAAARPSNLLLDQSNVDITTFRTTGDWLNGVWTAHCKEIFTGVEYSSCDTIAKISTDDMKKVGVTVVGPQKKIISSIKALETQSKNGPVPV
For test [13], the target named is Protein kinase C beta type (Homo sapiens) (UniProt P05771). Nature of the test: Inhibition of recombinant human PKCbeta2 (2 to end residues) assessed as residual activity at 10 uM using histone H1 as substrate incubated for 40 mins in presence of [gamma33P]ATP by scintillation counting based radiometry assay relative to control.
The target in test [14] is Calcium/calmodulin-dependent protein kinase type II subunit beta (Homo sapiens) (UniProt Q13554). Description: Inhibition of recombinant human CaMK2beta (1 to 315 residues) assessed as residual activity at 10 uM using […] incubated for 40 mins in presence of [gamma-33ATP] by scintillation counting based radiometry assay relative to control.
Calcium/calmodulin-dependent protein kinase type II subunit beta (Homo sapiens), sequence (Q13554 whole entry, the tested form may be a part): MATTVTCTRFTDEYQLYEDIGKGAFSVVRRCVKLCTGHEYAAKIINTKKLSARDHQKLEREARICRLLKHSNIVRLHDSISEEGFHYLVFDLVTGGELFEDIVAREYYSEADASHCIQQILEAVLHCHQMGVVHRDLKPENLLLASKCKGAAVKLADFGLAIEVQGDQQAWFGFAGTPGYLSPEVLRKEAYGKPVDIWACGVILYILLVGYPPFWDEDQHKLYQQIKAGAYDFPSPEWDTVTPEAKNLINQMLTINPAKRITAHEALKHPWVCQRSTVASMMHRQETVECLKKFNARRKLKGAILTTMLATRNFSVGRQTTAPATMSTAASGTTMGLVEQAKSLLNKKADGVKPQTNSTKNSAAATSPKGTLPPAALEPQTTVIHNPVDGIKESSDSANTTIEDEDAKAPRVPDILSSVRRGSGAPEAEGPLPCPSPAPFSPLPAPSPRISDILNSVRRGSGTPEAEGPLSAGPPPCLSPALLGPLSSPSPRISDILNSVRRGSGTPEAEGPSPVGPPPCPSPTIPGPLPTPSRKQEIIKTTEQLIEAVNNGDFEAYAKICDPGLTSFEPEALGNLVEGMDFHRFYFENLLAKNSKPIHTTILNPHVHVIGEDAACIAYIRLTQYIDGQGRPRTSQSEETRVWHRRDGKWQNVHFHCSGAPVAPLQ
The subject of test [15] is Tyrosine-protein kinase ABL1 (Homo sapiens), P00519 [Q252H]. Nature of the test: Inhibition of human ABL1 Q252H mutant (27 to end residues) assessed as residual activity at 10 uM using EAIYAAPFAKKK as substrate incubated for 40 mins in presence of [gamma-33ATP] by scintillation counting based radiometry assay relative to control.
Test [16] has as its system Receptor-type tyrosine-protein kinase FLT3 (Homo sapiens), P36888 [D835Y]. Description: Inhibition of recombinant human FLT3 D835Y mutant (564 to end residues) assessed as residual activity at 10 uM using EAIYAAPFAKKK as substrate at 40 mins in presence of [gamma-33ATP] by scintillation counting based radiometry assay relative to control.
In test [17] the target is DNA-dependent protein kinase catalytic subunit (Homo sapiens) (UniProt P78527). Nature of the test: Inhibition of human DNA-PK assessed as residual activity at 10 uM using GST-cMyc-p53 as substrate measured after 40 mins by fluorescence assay relative to control.
Test [18] deals with Epidermal growth factor receptor (Homo sapiens) (UniProt P00533). Description: Inhibition of recombinant human EGFR (696 to end residues) assessed as residual activity at 10 uM using poly(Glu, Tyr) 4:1 as substrate at 40 mins in presence of [gamma-33ATP] by scintillation counting based radiometry assay relative to control.
Test [19] concerns the target Serine-protein kinase ATM (Homo sapiens) (UniProt Q13315). Nature of the test: Inhibition of recombinant full-length human ATM assessed as residual activity at 10 uM using GST-cMyc-p53 as substrate measured after 40 mins by ELISA relative to control.
Test [20] concerns Angiopoietin-1 receptor (Homo sapiens), Q02763 [Q939H,Q940H,R849W]. Description: Inhibition of recombinant human TIE2 Q939H/Q940H/R849W mutant (771 to end residues) assessed as residual activity at 10 uM using EFPIYDFLPAKKK as substrate incubated for 40 mins in presence of [gamma33P]ATP by scintillation counting based radiometry assay relative to control.
Test [21] deals with Dual specificity tyrosine-phosphorylation-regulated kinase 2 (Homo sapiens) (UniProt Q92630). Description: Inhibition of recombinant human DYRK2 assessed as residual activity at 10 uM using casein as substrate at 40 mins in presence of [gamma-33ATP] by scintillation counting based radiometry assay relative to control.
Dual specificity tyrosine-phosphorylation-regulated kinase 2 (Homo sapiens), sequence (Q92630 whole entry, canonical isoform): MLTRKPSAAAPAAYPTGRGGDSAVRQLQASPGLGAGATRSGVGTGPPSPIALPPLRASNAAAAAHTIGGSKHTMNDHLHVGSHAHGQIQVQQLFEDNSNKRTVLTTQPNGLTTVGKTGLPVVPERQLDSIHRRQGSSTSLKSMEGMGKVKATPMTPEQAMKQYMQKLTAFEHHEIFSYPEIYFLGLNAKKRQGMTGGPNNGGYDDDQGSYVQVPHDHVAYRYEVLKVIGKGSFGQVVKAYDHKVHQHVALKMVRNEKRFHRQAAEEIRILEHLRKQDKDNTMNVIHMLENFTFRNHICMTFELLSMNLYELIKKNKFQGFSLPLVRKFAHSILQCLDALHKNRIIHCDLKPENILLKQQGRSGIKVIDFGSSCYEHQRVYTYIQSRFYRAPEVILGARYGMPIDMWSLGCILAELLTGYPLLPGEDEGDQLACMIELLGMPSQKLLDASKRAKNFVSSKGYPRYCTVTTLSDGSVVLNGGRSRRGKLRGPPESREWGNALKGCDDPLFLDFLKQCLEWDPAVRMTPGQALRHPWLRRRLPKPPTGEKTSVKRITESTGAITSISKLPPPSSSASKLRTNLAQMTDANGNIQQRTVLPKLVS
Test [22] addresses Phosphorylase b kinase gamma catalytic chain, skeletal muscle/heart isoform (Homo sapiens) (UniProt Q16816). Description: Inhibition of recombinant full-length human PhKgamma1 assessed as residual activity at 10 uM using KKLNRTLSFAEPG as substrate incubated for 40 mins in presence of [gamma33P]ATP by scintillation counting based radiometry assay relative to control.

Serine/threonine-protein kinase PAK 5 (Homo sapiens), sequence (Q9P286 whole entry, looked up): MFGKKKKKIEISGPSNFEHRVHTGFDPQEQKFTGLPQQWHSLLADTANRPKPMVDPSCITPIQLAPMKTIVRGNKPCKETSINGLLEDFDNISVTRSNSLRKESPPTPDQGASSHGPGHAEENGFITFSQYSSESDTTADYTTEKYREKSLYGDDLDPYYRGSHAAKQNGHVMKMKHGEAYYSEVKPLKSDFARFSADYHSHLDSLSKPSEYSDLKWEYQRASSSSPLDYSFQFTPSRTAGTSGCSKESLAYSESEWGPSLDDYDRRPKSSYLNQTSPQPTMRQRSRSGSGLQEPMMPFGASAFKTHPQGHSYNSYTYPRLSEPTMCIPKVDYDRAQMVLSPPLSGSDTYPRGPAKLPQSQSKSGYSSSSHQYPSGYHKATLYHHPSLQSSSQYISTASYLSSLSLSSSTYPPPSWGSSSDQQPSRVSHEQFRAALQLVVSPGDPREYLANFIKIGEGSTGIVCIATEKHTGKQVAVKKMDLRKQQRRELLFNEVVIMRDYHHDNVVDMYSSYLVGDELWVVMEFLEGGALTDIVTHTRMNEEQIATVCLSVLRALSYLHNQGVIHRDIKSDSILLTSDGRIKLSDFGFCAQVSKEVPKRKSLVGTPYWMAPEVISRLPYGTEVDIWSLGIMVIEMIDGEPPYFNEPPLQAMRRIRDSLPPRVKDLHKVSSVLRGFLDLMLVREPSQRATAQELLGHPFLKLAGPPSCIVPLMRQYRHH
Ribosomal protein S6 kinase alpha-1 (Homo sapiens), sequence (Q15418 whole entry, the tested form may be a part): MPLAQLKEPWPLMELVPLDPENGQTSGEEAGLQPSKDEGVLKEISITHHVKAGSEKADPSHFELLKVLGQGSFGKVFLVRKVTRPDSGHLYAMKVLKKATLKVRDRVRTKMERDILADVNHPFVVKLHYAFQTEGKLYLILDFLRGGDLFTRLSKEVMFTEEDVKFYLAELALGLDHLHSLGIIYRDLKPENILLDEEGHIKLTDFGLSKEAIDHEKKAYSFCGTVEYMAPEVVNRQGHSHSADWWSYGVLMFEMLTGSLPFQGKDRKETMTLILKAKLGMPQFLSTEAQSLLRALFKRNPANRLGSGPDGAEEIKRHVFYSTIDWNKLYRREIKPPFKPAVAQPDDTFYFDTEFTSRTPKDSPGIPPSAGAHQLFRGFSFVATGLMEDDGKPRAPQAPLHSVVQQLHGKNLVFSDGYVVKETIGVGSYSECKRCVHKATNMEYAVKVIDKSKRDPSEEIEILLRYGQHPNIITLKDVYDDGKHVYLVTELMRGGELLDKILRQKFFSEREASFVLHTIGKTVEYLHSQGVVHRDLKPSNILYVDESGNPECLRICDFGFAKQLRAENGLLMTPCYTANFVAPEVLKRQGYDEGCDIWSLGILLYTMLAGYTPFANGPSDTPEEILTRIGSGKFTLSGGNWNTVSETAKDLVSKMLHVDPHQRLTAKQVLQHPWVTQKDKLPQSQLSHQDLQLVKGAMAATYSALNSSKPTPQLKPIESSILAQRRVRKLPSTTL
3-phosphoinositide-dependent protein kinase 1 (Homo sapiens), sequence (O15530 whole entry): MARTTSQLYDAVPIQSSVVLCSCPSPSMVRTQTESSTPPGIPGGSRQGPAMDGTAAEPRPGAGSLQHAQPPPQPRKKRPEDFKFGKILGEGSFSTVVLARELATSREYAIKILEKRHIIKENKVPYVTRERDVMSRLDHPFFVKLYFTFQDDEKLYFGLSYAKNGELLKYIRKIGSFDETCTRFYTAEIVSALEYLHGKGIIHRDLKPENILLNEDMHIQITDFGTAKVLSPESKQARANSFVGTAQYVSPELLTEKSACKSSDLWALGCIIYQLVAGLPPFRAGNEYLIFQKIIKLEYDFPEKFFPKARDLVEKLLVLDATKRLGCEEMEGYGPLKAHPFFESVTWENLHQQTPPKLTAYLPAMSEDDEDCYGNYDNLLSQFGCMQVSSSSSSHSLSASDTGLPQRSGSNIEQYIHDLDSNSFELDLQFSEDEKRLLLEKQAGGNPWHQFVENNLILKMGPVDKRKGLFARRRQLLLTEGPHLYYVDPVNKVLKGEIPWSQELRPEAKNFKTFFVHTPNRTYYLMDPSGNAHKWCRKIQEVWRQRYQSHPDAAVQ

Regarding `C[C@@H](c1ccccc1)n1nnc2cnc3ccc(-c4cnc5[nH]ccc5c4)cc3c21`, the Activity was determined as 91% in test [1]; 26% in test [2]; 110% in test [3]; 46% in test [4]; 37% in [5]; 80% in [6]. For the same compound, the Activity in test [7] came to 43%; in test [8], 60%; in test [9], 89%; in test [10] it was 56%; in test [11] it was 90%; in test [12] it was 80%. For the same compound, the Activity was determined as 93% in [13]; 85% in test [14]; 1% in test [15]; 42% in test [16]; 4% in test [17]; 90% in [18]. Moreover, the Activity is 0% in test [19], 103% in [20], 94% in [21] and 70% in test [22].
